ChEMBL document CHEMBL1129998, “Pharmacological options in the treatment of benign prostatic hyperplasia” (J Med Chem, 1997)
Values belong to the compound of their own block, whether it stands above or below them.

Columns and labels:
[1] = Dose (iv) for 20% reduction of mean blood pressure in rat (ID20) with the dose for 50% inhibition of norepinephrine-mediated contraction of proximal urethra (ID50) in cat; assay type: functional
[2] = biological target: T1, Alpha-1B adrenergic receptor (Homo sapiens, UniProt P35368); assay: Binding affinity was tested on human Alpha-1B adrenergic receptor
T1 sequence (P35368 whole entry): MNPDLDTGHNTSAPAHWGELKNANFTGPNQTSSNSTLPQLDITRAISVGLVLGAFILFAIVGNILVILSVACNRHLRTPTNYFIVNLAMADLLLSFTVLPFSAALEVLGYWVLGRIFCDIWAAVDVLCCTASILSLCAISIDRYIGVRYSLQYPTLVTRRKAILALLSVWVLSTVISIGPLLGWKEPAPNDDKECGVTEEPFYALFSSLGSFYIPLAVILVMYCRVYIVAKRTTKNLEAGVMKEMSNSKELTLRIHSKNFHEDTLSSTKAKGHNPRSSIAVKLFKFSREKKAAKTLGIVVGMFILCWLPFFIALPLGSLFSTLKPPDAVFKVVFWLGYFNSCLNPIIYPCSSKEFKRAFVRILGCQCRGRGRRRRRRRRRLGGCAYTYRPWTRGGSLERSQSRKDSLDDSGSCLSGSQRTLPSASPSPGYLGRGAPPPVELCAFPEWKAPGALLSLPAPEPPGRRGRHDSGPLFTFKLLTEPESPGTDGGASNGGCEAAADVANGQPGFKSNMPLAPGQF

[3] = biological target: T2, Alpha-1A adrenergic receptor (Homo sapiens, UniProt P35348); assay: Binding affinity was tested on human Alpha-1A adrenergic receptor
T2 sequence (P35348 whole entry): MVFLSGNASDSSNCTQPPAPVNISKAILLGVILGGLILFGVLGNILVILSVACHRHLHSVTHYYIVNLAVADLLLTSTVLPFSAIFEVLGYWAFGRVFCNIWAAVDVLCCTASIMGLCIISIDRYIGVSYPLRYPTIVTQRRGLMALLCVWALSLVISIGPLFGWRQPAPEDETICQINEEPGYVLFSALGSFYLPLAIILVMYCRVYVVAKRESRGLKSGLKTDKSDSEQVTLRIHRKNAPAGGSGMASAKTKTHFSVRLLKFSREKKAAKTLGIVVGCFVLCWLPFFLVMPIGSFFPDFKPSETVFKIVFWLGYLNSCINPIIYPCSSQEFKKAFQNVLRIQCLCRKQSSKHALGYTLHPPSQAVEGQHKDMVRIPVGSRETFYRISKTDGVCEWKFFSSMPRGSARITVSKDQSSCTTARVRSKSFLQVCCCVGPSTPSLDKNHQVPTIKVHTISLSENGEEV

[4] = biological target: T3, Adrenergic receptor alpha-1 (Homo sapiens, UniProt P35348+P25100+P35368); assay: pA2 for Alpha-1 adrenergic receptor from human prostate.; assay type: tissue-based, Prostate gland
T3 sequence (P35348 whole entry): T2 sequence (P35348 whole entry)
T3 sequence (P25100 whole entry): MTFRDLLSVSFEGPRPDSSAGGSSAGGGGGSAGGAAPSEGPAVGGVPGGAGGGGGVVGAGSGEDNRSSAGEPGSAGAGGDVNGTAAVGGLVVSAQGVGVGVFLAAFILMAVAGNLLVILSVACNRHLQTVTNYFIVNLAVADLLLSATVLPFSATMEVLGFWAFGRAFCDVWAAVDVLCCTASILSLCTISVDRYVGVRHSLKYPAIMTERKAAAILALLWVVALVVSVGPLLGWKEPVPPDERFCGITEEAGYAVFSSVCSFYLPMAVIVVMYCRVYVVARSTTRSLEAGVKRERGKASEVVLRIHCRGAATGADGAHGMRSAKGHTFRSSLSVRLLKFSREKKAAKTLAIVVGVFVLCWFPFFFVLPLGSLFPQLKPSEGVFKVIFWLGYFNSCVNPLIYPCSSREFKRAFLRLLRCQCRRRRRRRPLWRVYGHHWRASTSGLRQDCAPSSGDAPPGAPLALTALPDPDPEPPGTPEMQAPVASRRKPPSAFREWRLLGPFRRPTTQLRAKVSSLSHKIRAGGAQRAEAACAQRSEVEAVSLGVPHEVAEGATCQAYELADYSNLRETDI
T3 sequence (P35368 whole entry): T1 sequence (P35368 whole entry)

[5] = biological target: T4, Alpha-1D adrenergic receptor (Homo sapiens, UniProt P25100); assay: Binding affinity was tested on human Alpha-1D adrenergic receptor
T4 sequence (P25100 whole entry): T3 sequence (P25100 whole entry)

[6] = Inhibitory concentration on human 5-alpha reductase isozyme
[7] = biological target: T5, Steroid 5-alpha-reductase (Rattus norvegicus, UniProt P24008+P31214); assay: Inhibition of rat 5-alpha reductase isozyme.; assay type: protein assay
T5 sequence (P24008 whole entry): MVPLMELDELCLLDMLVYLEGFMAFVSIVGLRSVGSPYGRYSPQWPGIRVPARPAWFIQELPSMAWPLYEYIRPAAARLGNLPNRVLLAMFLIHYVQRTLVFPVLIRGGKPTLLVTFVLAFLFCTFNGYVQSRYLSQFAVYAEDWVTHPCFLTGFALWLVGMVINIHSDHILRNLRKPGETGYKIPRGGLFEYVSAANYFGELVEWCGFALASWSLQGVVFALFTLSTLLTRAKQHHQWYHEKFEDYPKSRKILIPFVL
T5 sequence (P31214 whole entry): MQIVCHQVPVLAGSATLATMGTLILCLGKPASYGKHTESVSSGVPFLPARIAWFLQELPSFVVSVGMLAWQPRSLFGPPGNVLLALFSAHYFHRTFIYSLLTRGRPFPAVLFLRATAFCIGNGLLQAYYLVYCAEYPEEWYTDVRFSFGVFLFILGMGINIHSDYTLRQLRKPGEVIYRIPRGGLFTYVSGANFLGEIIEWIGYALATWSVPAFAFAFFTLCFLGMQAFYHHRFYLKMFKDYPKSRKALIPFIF

[8] = biological target: T6, 3-oxo-5-alpha-steroid 4-dehydrogenase 2 (Homo sapiens, UniProt P31213); assay: Inhibitory concentration on human prostatic 5-alpha reductase 2 isozyme
T6 sequence (P31213 whole entry): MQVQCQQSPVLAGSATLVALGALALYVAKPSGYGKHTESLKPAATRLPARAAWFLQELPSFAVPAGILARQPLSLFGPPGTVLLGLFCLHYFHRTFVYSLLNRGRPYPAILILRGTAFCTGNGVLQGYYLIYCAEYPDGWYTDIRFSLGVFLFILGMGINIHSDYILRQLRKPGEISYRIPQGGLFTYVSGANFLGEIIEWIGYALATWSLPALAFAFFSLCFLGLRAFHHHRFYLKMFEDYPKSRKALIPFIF

[9] = Apparent binding affinity on human 5-alpha reductase isozyme
[10] = biological target: T5, Steroid 5-alpha-reductase; assay: Apparent binding affinity on rat 5-alpha reductase isozyme; assay type: protein assay
[11] = biological target: T7, Alpha-1B adrenergic receptor (Rattus norvegicus, UniProt P15823); assay: Binding affinity was tested on CEC-pretreated rat liver Alpha-1B adrenergic receptor
T7 sequence (P15823 whole entry): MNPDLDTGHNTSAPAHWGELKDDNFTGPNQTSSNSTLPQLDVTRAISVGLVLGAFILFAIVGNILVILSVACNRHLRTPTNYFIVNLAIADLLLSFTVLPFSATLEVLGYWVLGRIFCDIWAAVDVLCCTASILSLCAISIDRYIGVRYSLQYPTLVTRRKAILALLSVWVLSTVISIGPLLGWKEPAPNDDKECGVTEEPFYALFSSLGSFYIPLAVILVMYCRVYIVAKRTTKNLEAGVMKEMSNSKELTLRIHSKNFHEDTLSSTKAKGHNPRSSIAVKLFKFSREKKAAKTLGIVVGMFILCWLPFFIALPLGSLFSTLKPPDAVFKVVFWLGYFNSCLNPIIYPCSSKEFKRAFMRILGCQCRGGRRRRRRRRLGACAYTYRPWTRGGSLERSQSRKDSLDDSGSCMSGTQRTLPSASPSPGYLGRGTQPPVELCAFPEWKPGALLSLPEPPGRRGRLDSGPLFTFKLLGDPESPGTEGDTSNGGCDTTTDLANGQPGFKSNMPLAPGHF

[12] = biological target: T8, Alpha-1A adrenergic receptor (Rattus norvegicus, UniProt P43140); assay: Binding affinity was tested on CEC-pretreated rat hippocampus Alpha-1A adrenergic receptor; assay type: tissue-based
T8 sequence (P43140 whole entry): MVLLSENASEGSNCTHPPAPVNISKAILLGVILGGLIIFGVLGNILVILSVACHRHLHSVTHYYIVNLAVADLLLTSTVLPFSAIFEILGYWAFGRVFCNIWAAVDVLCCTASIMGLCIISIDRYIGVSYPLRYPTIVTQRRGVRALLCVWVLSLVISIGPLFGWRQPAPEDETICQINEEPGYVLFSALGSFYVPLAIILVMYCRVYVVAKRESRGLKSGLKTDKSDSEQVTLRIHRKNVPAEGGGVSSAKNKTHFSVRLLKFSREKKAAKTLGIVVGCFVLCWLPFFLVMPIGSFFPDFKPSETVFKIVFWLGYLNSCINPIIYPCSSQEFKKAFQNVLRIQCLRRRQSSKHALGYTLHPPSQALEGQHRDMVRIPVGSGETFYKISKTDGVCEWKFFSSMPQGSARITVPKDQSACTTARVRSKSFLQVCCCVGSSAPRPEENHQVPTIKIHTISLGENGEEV

[13] = system: Canis familiaris; assay: 50% reduction in intraurethral pressure (IUP) in response to hypogastric nerve stimulation or agonist (phenylephrine or norepinephrine) administration in anesthetized dog; assay type: functional; details: Canis lupus familiaris; read-out: ID50 (the source's name)
[14] = system: Canis familiaris; assay: 50% reduction in agonist induced pressor response in anesthetized dog; assay type: functional; details: Canis lupus familiaris; read-out: ID50 (the source's name)

Compound: NC(=O)c1ccnc(NCCCN2CCN(c3ccccc3C3CC3)CC2)n1
Ratio [1]: 4

Ki [2]: 39.8 nM
Ki [3]: 0.631 nM
pA2 [4]: 8.2
Ki [5]: 10 nM
Compound: COc1ccccc1N1CCN(CCCNc2c(C)c(=O)n(C)c(=O)n2C)CC1

IC50 [6]: 18 nM
IC50 [7]: 50 nM
Compound: CC(C)(C)NC(=O)[C@H]1CC[C@H]2[C@@H]3CC=C4C=C(C(=O)O)CC[C@]4(C)[C@H]3CC[C@]12C [EPRISTERIDE]

IC50 [6]: 7 nM
IC50 [7]: 47 nM
Compound: CC(C)N(C(=O)C1=CCC2C3CCC4=CC(C(=O)O)=CC[C@]4(C)C3CC[C@]12C)C(C)C (some centres undefined)

IC50 [8]: 381 nM
Compound: CC(C)NC(=O)N(C(=O)[C@H]1CCC2C3CCC4NC(=O)CC[C@]4(C)C3CC[C@@]21C)C(C)C (some centres undefined)

Ki [9]: 25 nM
Ki [10]: 200 nM
Compound: CC(C)N(C(=O)[C@H]1CCC2C3CC=C4C=C(P(=O)(O)O)CC[C@]4(C)C3CC[C@@]21C)C(C)C (some centres undefined)

IC50 [11]: 108 nM
IC50 [12]: 1 nM
Compound: Cc1c(-c2ccccc2)oc2c(C(=O)NCCCN3CCN(c4ccccc4OC(C)C)CC3)cccc2c1=O

Ki [9]: 4200 nM
Ki [10]: 5300 nM
Compound: CC(C)N(C(=O)[C@H]1CCC2C3CC=C4C=C(CO)CC[C@]4(C)C3CC[C@@]21C)C(C)C (some centres undefined)

IC50 [11]: 24 nM
IC50 [12]: 2 nM
Compound: COc1ccccc1N1CCN(CCCNC(=O)c2cccc3c(=O)c(C)c(-c4ccccc4)oc23)CC1 [UPIDOSIN]
ED50 [13]: 4 µg/kg
ED50 [14]: 109 µg/kg

Compound: CCOc1ccccc1OCCN[C@H](C)Cc1ccc(OC)c(S(N)(=O)=O)c1 (stereo in doubt; form 1) [TAMSULOSIN]
Ki [2]: 1.26 nM
ED50 [13]: 2 µg/kg
Ki [5]: 0.158 nM
ED50 [14]: 1 µg/kg

IC50 [8]: 1220 nM
Compound: CC(C)NC(=O)N(C(=O)[C@H]1CCC2C3CCC4N(C)C(=O)C=C[C@]4(C)C3CC[C@@]21C)C(C)C (some centres undefined)

IC50 [6]: 170 nM
IC50 [7]: 200 nM
Compound: CC1=C2C=C(C(=O)O)CC[C@]2(C)C2CC[C@@]3(C)C(CC[C@@H]3C(=O)c3cccc4ccccc34)C2C1 (some centres undefined)

IC50 [6]: 26 nM
IC50 [7]: 35 nM
Compound: CC(C)N(C(=O)[C@H]1CC[C@H]2[C@@H]3CC[C@H]4C(F)=C(C(=O)O)CC[C@]4(C)[C@H]3CC[C@]12C)C(C)C
